The results in this text go back to patent publication US6585996B1, “Lipid-soluble thiamine derivatives in the treatment of autism” (Westlake Laboratories, Inc., priority 2002, dated 2003).

One assay has as its system children with autism. Particulars: a few children with autism. From the text:
A few children with autism have been exposed to a dermal preparation since the study has been completed.

Another assay deals with autistic children. Particulars: 10 subjects, 50 mg TTFD twice a day, rectal suppository, two months.

Method for autistic children: In a pilot study, ten autistic children, eight boys and two girls, were administered 50 mg of TTFD twice a day through a rectal suppository for a two-month trial period. All the patients were previously diagnosed with autism as defined by those in the field. Parents were asked to fill in a symptom check form to assess the symptoms of the autistic children by giving a numerical score as to severity.
Both forms are scored by computer and were designed by the Autism Research Institute specifically for research of this spectrum of disease. The first form, Form E2, is a diagnostic tool that allocates points on a symptomatic basis. The higher the score, the closer the patient comes to being considered a classic case of autism. The common form of autism that is occurring within the pilot test group seldom reaches the score that indicates classic autism, defined as the inability of a person to relate themself in the ordinary way to people and situations from the beginning of life.
The second form, the ATEC (Autism Treatment Evaluation Checklist) form, also allocates points on a symptomatic basis. […] In addition to completing the forms based on patient behavior, physiological changes were also measured.
Clinical improvement, as shown by the bars, is obtained by subtracting the final ATEC score from that calculated at the outset of the study.

For `CC(=C(CCO)SSCC1CCCO1)N(C=O)Cc1cnc(C)nc1N` (stereo in doubt) [TTFD, thiamine tetrahydrofurfuryl disulfide], the “Clinical results of oral versus rectal administration” value is “does not appear to give as striking clinical results as rectal administration”. Further, the “Clinical condition with dermal preparation” value with children with autism was “immediate improvement in the child's condition was noted”. Moreover, the “Subjects showing clinical improvement in their autistic disorder” value in the assay on autistic children was “Eight of the 10”.
